{"source": "ChEMBL document CHEMBL1126498", "about": "“Heterocyclic inhibitors of human leukocyte elastase: 3-Hydroxypyridazopyrimidine, 3-hydroxypyridopyrimidine and 3-hydroxyquinazoline-2,4-1H,3H0dione derivatives” (Bioorg Med Chem Lett, 1993)", "note": "Activity calls are given as the source filed them. The rule behind the calls is not given here."}
{"biological_target": "T1, Neutrophil elastase (Homo sapiens) (UniProt P08246)", "T1 sequence (whole entry)": "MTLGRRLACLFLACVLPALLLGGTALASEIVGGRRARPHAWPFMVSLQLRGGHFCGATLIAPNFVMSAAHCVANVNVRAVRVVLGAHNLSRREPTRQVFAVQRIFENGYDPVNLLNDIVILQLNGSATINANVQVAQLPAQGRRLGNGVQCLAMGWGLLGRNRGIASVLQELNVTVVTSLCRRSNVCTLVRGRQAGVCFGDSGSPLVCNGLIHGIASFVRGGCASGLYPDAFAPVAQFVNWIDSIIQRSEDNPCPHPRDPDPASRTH", "assay": "The bimolecular rate constant Kobs/[I] to inhibit human leukocyte elastase (HLE) was determined", "units": {"K obs / 1": "M⁻¹ s⁻¹"}}
{"molecule": "CCCCCS(=O)(=O)On1c(=O)[nH]c2ccccc2c1=O", "K obs / 1": 40}
{"molecule": "CCCOP(=O)(OCCC)On1c(=O)[nH]c2ccccc2c1=O", "K obs / 1": 3160}
{"molecule": "CCCCS(=O)(=O)On1c(=O)[nH]c2nccnc2c1=O", "K obs / 1": 20}
{"molecule": "CCCCS(=O)(=O)On1c(=O)[nH]c2ccccc2c1=O", "K obs / 1": 180}
{"molecule": "CCCCOP(=O)(OCCCC)On1c(=O)[nH]c2ccccc2c1=O", "K obs / 1": 3870}
{"molecule": "CCCCS(=O)(=O)On1c(=O)[nH]c2ccncc2c1=O", "K obs / 1": 58}
{"molecule": "CC(C)CS(=O)(=O)On1c(=O)[nH]c2ccccc2c1=O", "K obs / 1": 170}
{"molecule": "CCCCS(=O)(=O)On1c(=O)[nH]c2cccnc2c1=O", "K obs / 1": 64}
{"biological_target": "T1, Neutrophil elastase (Homo sapiens)", "assay": "The bimolecular rate constant Kobs/[I] to inhibit human leukocyte elastase (HLE) was determined; IA denotes inactive"}
{"molecule": "CS(=O)(=O)On1c(=O)[nH]c2nccnc2c1=O", "K obs / 1": "inactive"}
{"molecule": "O=c1[nH]c2ccccc2c(=O)n1OS(=O)(=O)c1ccccc1", "K obs / 1": "inactive"}
{"molecule": "CS(=O)(=O)On1c(=O)[nH]c2ccccc2c1=O", "K obs / 1": "inactive"}
{"molecule": "O=c1[nH]c2nccnc2c(=O)n1OS(=O)(=O)c1ccccc1", "K obs / 1": "inactive"}
